Where “and” joins values, the source holds several entries; their conditions need not be identical. Equal entries are not always repeated. Entries after “also recorded” stand apart in the source; their conditions may differ. Where two headings read alike, the source gives them in different places.
Legend:
Assay type in all cases: cell-based, human
[1] = system: HEK293T cells
[2] = system: HEK293T cells; remark: listed apart in the source
[3] = system: HEK293T cells; settings: single agent, FIG. 2; for concentration giving optimum vector production: induction 24 h post transfection
[4] = system: suspension (serum-free) HEK293T cells; test: Example 8: GFP reporter expression from constitutive promoters in suspension HEK293T with or without prostratin, flow cytometry; settings: 11 μM prostratin with 10 mM sodium butyrate, two pDNA input levels, FIG. 18
[5] = system: HEK293T.1-65s suspension cells
[6] = system: HEK1.65s cells; test: Example 3: cell viability measurements of induced HEK1.65s cells (Table 6); settings: for Cell Viability (%): HEK1.65s; for Δ (cell viability vs No Induction Control): vs no induction control 78.8
[7] = system: HEK1.65s cells; settings: 11 μM prostratin + 8 mM sodium butyrate, 40 mL shake flask; FACS and integration QPCR, FIGS. 10A & B
[8] = system: HEK1.65s cells; settings: for inducing effect on LV titre among HDAC inhibitors: HEK1.65s, 24-well plate, FIG. 7, sodium valproate at 3 mM, valeric acid at 10 mM
[9] = system: HEK1.65s cells; test: Example 3 Experiment 2: sodium butyrate x prostratin DOE in suspension HEK1.65s, 24-well plate, GFP titration and JMP model; settings: for optimum predicted concentration of combined induction agents: prediction profiler, FIG. 9C
[10] = system: HEK1.65s cells
[11] = system: HEK1.65s cells; test: Example 4: 40 mL shake flask vector production, titre by duplex QPCR integration assay; settings: VRC vs VRC+55 nM prostratin, FIG. 10B
[12] = system: HEK1.65s cells; remark: listed apart in the source
[13] = system: HEK293T cells; test: FIG. 13/14: standard or MSD-mutated lentiviral vector production in HEK293T with modified U1 snRNA, titration and RT-PCR of aberrant splice product; settings: modified U1 snRNA co-expressed during production of standard and MSD-mutated LVs
[14] = 11 μM prostratin with 10 mM sodium butyrate
[15] = 256U1 snRNA expression combined with 11 μM prostratin at induction
[16] = single titre enhancing agent (256U1 expression or 11 μM prostratin), 10 mM sodium butyrate

Molecule: CC(=O)NCCCCCCNC(C)=O [HMBA]
- titre relative to the no-induction control [1]: approximately 4 fold
- effect on titre of combination with HDAC inhibitors ([1]; compared with HDAC inhibitor alone): no or only marginal improvements in titres; also recorded: did not produce any positive effects on titre
- optimum concentration for vector induction ([1]; single agent, FIG. 4): 16 mM
- effect on titre in combination with prostratin and sodium butyrate ([2]; 8 mM HMBA, compared to conditions where HMBA was excluded): notable decrease
- effect on titre in combination with alternate HDAC inhibitors ([2]; with sodium valproate, valeric acid or SAHA, FIG. 6): negative effects on titre

Molecule: CC(=O)N[C@@H](CS)C(=O)O [NAC, N-Acetyl Cysteine]
- effect on vector titre [3]: no positive impact on titre

Molecule: CCCCCCCCCCCCCC(=O)O[C@@H]1[C@@H](C)[C@@]2(O)[C@@H](C=C(CO)C[C@]3(O)C(=O)C(C)=C[C@@H]23)[C@@H]2C(C)(C)[C@]12OC(C)=O [PMA, Phorbol 12-myristate 13-acetate]
- optimum concentration for vector induction [1]: 3.2e-05 mM
- titre relative to the no-induction control [1]: approximately 4 fold
- effect on vector titre [3]: highest vector induction

Molecule: O=C(CCCCCCC(=O)Nc1ccccc1)NO [SAHA, suberanilohydroxamic acid]
- optimum concentration for vector induction ([1]; single agent, FIG. 4): 0.001 mM
- concentration giving optimum vector production [3]: 0.0025 mM

Molecule: CC(/C=C/C(=O)NO)=C\[C@@H](C)C(=O)c1ccc(N(C)C)cc1 [TSA]
- effect on vector titre [3]: failed to improve vector titres

Molecule: O=C(OC[C@H]1O[C@@H](OC(=O)c2cc(O)c(O)c(OC(=O)c3cc(O)c(O)c(O)c3)c2)[C@H](OC(=O)c2cc(O)c(O)c(OC(=O)c3cc(O)c(O)c(O)c3)c2)[C@@H](OC(=O)c2cc(O)c(O)c(OC(=O)c3cc(O)c(O)c(O)c3)c2)[C@@H]1OC(=O)c1cc(O)c(O)c(OC(=O)c2cc(O)c(O)c(O)c2)c1)c1cc(O)c(O)c(OC(=O)c2cc(O)c(O)c(O)c2)c1 [Tannic acid, tannic acid]
- effect on vector titre [3]: no measurable vector production

Molecule: CC(=O)O[C@@]12C[C@@H](C)[C@@]3(O)[C@@H](C=C(CO)C[C@]4(O)C(=O)C(C)=C[C@@H]34)[C@@H]1C2(C)C [prostratin, 12-Deoxyphorbol-13-acetate]
- induction of GFP transgene expression from constitutive promoters [4]: induction of expression from the promoters; also recorded: clear induction
- titre relative to the no-induction control [1]: approximately 4 fold
- increase of MFI from GFP FACS of transduced cells ([1]; 16 μM prostratin at induction, residual 0.4 μM after 40-fold vector dilution): 26%
- MFI from GFP FACS of transduced cells ([1]; 0.5 to 8 μM prostratin at induction): not observed to change
- optimum concentration for vector induction ([1]; single agent, FIG. 4): 0.016 mM
- titres of MSD-mutated LV with Prostratin and 256U1 applied together ([5]; 11 μM Prostratin + 256U1 co-transfection, versus standard LV without inducers): higher that standard LV production titres; also recorded: increased higher than standard SIN-LV vectors
- increase in titres of MSD-mutated LV vectors ([5]; 11 μM Prostratin added at the sodium butyrate step, HIV-MSD2KOm5-EFS-GFP or -EF1a-GFP, FIG. 15): 5-10 fold
- effect on titres of MSD-mutated and standard SIN-LV [5, 14]: boosted titres
- Cell Viability (%) ([6]; 2 μM prostratin, condition 3, vector production period of 48 hours): 79.4%
- Δ (cell viability vs No Induction Control) ([6]; 2 μM prostratin, condition 3): +0.6
- Cell Viability (%) ([6]; 16 μM prostratin, condition 9, vector production period of 48 hours): 82.2%
- Δ (cell viability vs No Induction Control) ([6]; 16 μM prostratin, condition 9): +3.4
- Cell Viability (%) ([6]; 32 μM prostratin, condition 45, vector production period of 48 hours): 79.8%
- Δ (cell viability vs No Induction Control) ([6]; 32 μM prostratin, condition 45): +1
- effect on cell viability ([6]; prostratin 2-32 μM, vector production period of 48 hours): did not present any further loss in cell viability; also recorded: little cytotoxic effect; also recorded: no decrease in cell viability
- vector titre relative to induction with sodium butyrate alone [7]: 2.4- to 2.9 fold
- effect on titre of addition alongside HDACi ([8]; prostratin 4-8 μM with HDACi, nearly all cases): increased titres
- increase of LV titre above optimum sodium butyrate (8 mM) alone ([9]; 11 μM prostratin with 8 mM sodium butyrate, DOE model optimum): 1.93 fold and ~2 fold
- increase of GFP-HIV LV titres in combination with HDAC inhibitors ([9]; Example 3 as summarised in Example 4, 24-well plate scale): ≥ 2 fold
- effect on titre in combination with sodium butyrate ([9]; FIG. 8): marked positive effect on titre
- lowest concentrations causing an increase in titre ([9]; in combination with sodium butyrate): 2 to 4 µM
- optimum predicted concentration of combined induction agents [9]: 11 µM
- increase in vector titre compared to the no induction control ([9]; prostratin alone at 8-16 μM): ~13 fold and > 10 fold
- inducing effect relative to optimum sodium butyrate ([9]; prostratin alone at 8-16 μM): approximately half the inducing effect of optimum sodium butyrate concentrations
- increase in EIAV-CMV-GFP titre compared to the control titre [10, 14]: 2 fold
- EIAV-CMV-GFP vector titre at harvest ([10]; 11 μM prostratin with 10 mM sodium butyrate at induction): 9.1E+05 TU/mL
- effect on vector titre [3]: highest vector induction
- effect of residual prostratin on titres from the integration assay [11]: identical titres
- titre increase compared to standard production control, CAR #1 vector [12, 15]: 125 fold
- titre increase compared to standard production control, CAR #2-T2A-GFP vector [12, 15]: 4.5 fold
- titre increase compared to standard production control, CAR #2 vector [12, 15]: 7.9 fold
- titre increase compared to standard production control, CAR #1 vector [12, 16]: 24 fold
- titre increase compared to standard production control, CAR #2-T2A-GFP vector [12, 16]: 2 fold
- titre increase compared to standard production control, CAR #2 vector [12, 16]: 2.6 fold
- increase in vector titre ([2]; 10 μM prostratin in combination with 10 mM sodium butyrate): 92%
- effect on induction of increasing prostratin from 1 to 10 μM ([2]; throughout all the tested HDAC inhibitors, FIG. 6): positive enhancement of induction

Molecule: CCCC(=O)[O-].[Na+] [sodium butyrate]
- Cell Viability (%) ([6]; 10 mM sodium butyrate, condition 35, vector production period of 48 hours): 74.8%
- Δ (cell viability vs No Induction Control) ([6]; 10 mM sodium butyrate, condition 35): −4
- loss in cell viability ([6]; sodium butyrate treated cells, vector production period of 48 hours): 4%
- inducing effect on LV titre among HDAC inhibitors [8]: highest LV titres
- optimum predicted concentration of combined induction agents [9]: 8000 µM
- concentration giving optimum vector production [3]: 5 mM

Molecule: CCCC(CCC)C(=O)[O-].[Na+] [sodium valproate]
- optimum concentration for vector induction ([1]; single agent, FIG. 4): 10 mM
- inducing effect on LV titre among HDAC inhibitors [8]: some inducing effect
- concentration giving optimum vector production [3]: 10 mM

Molecule: CCCCC(=O)O [valeric acid]
- optimum concentration for vector induction ([1]; single agent, FIG. 4): 10 mM
- inducing effect on LV titre among HDAC inhibitors [8]: some inducing effect
- concentration giving optimum vector production [3]: 20 mM

B1: 256U1: modified U1 snRNA targeting nt256-270 (SL1 loop) of the HIV-1 packaging signal; expression construct SEQ ID NO: 22 (nucleic acid)
DNA: TAAGGACCAGCTTCTTTGGGAGAGAACAGACGCAGGGGCGGGAGGGAAAAAGGGAGAGGCAGACGTCACTTCCCCTTGGCGGCTCTGGCAGCAGATTGGTCGGTTGAGTGGCAGAAAGGCAGACGGGGACTGGGCAAGGCACTGTCGGTGACATCACGGACAGGGCGACTTCTATGTAGATGAGGCAGCGCAGAGGCTGCTGCTTCGCCACTTGCTGCTTCACCACGAAGGAGTTCCCGTGCCCTGGGAGCGGGTTCAGGACCGCTGATCGGAAGTGAGAATCCCAGCTGTGTGTCAGGGCTGGAAAGGGCTCGGGAGTGCGCGGGGCAAGTGACCGTGTGTGTAAAGAGTGAGGCGTATGAGGCTGTGTCGGGGCAGAGGCCCAAGATCTCATTTGCCGTGCGCGCTTGCAGGGGAGATACCATGATCACGAAGGTGGTTTTCCCAGGGCGAGGCTTATCCATTGCACTCCGGATGTGCTGACCCCTGCGATTTCCCCAAATGTGGGAAACTCGACTGCATAATTTGTGGTAGTGGGGGACTGCGTTCGCGCTTTCCCCTGGTTTCAAAAGTAGACTGTACGCTAAGGGTCATATCTTTTTTTGTTTTGGTTTGTGTCTTGGTTGGCGTCTTAAATGTTAA
modifications: DNA-based expression constructs for the modified U1 snRNAs
- titre increase compared to standard production control, CAR #1 vector [12, 16]: 46 fold
- titre increase compared to standard production control, CAR #2-T2A-GFP vector [12, 16]: 2.7 fold
- titre increase compared to standard production control, CAR #2 vector [12, 16]: 2.5 fold
- effect on lentiviral vector titres [13]: capable of increasing lentiviral vector titres

From patent publication US20230183742A1, “Viral Vector Production” (Oxford BioMedica (UK) Limited, priority 2020, published 2023)
